In brackets after ≈: the same amount, converted by molar mass. Activity calls are given as the source filed them. The calls are words filed in the database; no cut-off is given here. Where a SMILES comes first, the peptide text is derived from it. [ ]: non-standard residue; d: D form. Bip = N[C@@H](Cc1ccc(-c2ccccc2)cc1)C(=O)O; Phe(4-I) = N[C@@H](Cc1ccc(I)cc1)C(=O)O
Assays:
Staphylococcus aureus [1] = assay: Antibacterial activity against methicillin-resistant Staphylococcus aureus; assay type: functional
[2] = test system: Staphylococcus epidermidis; assay: Antibacterial activity against methicillin-resistant Staphylococcus epidermidis; assay type: functional
Staphylococcus aureus [3] = assay: Antibacterial activity against Staphylococcus aureus; assay type: functional
Streptococcus pyogenes [4] = assay: Antibacterial activity against Streptococcus pyogenes; assay type: functional
[5] = Toxicity assessed as hemolysis of human erythrocytes at 500 ug/mL; assay type: cell-based, Erythrocyte; conditions: read-out: Activity
Streptococcus pyogenes [6] = assay: Antibacterial activity against Streptococcus pyogenes upto 100 ug/mL; assay type: functional, organism-based
Staphylococcus aureus [7] = assay: Antibacterial activity against Staphylococcus aureus upto 100 ug/mL; assay type: functional, organism-based
Staphylococcus aureus [8] = assay: Antibacterial activity against methicillin-resistant Staphylococcus aureus upto 100 ug/mL; assay type: functional, organism-based
[9] = Toxicity assessed as hemolysis of human erythrocytes; assay type: cell-based, Erythrocyte

SMILES | MIC (Staphylococcus aureus [1]) | MIC [2] | MIC (Staphylococcus aureus [3]) | Activity (Streptococcus pyogenes [4]) | further results
N=C(N)NCCC[C@H](NC(=O)[C@H](Cc1ccc(-c2cccc(-c3ccccc3)c2)cc1)NC(=O)[C@@H](N)CCCNC(=N)N)C(N)=O | 11 µM (≈ 6.92 µg/mL) | 4.8 µM (≈ 3.02 µg/mL) | 16 µM (≈ 10.1 µg/mL) | inactive | –
Cc1cc(C)cc(-c2ccc(C[C@H](NC(=O)[C@@H](N)CCCNC(=N)N)C(=O)N[C@@H](CCCNC(=N)N)C(N)=O)cc2)c1 | – | 9 µM (≈ 5.23 µg/mL) | – | inactive | Activity (Staphylococcus aureus [1]): inactive; Activity (Staphylococcus aureus [3]): inactive
N=C(N)NCCC[C@H](NC(=O)[C@H](Cc1ccc(-c2cccc3ccccc23)cc1)NC(=O)[C@@H](N)CCCNC(=N)N)C(N)=O | 29 µM (≈ 17.5 µg/mL) | 8.3 µM (≈ 5 µg/mL) | – | inactive | Activity (Staphylococcus aureus [3]): inactive
CCCCc1ccc(-c2ccc(C[C@H](NC(=O)[C@@H](N)CCCNC(=N)N)C(=O)N[C@@H](CCCNC(=N)N)C(N)=O)cc2)cc1 | 7 µM (≈ 4.26 µg/mL) | 4.1 µM (≈ 2.5 µg/mL) | 9 µM (≈ 5.48 µg/mL) | – | hemolysis at 500 ug/mL [5]: 40%; MIC (Streptococcus pyogenes [4]): 16 µM (≈ 9.74 µg/mL)
N=C(N)NCCC[C@H](NC(=O)[C@H](Cc1ccc(-c2ccccc2)cc1)NC(=O)[C@@H](N)CCCNC(=N)N)C(N)=O (H-Arg-[Bip]-Arg-NH2) | – | 59 µM (≈ 32.6 µg/mL) | – | – | Activity (Streptococcus pyogenes [6]): inactive; Activity (Staphylococcus aureus [7]): inactive; Activity (Staphylococcus aureus [8]): inactive
N=C(N)NCCC[C@H](NC(=O)[C@H](Cc1ccc(-c2ccc(-c3ccccc3)cc2)cc1)NC(=O)[C@@H](N)CCCNC(=N)N)C(N)=O | 8.3 µM (≈ 5.22 µg/mL) | 4.8 µM (≈ 3.02 µg/mL) | 9.1 µM (≈ 5.72 µg/mL) | – | EC50 [9]: 420 µg/mL (≈ 668 µM); MIC (Streptococcus pyogenes [4]): 20 µM (≈ 12.6 µg/mL)
N=C(N)NCCC[C@H](NC(=O)[C@H](Cc1ccc(I)cc1)NC(=O)[C@@H](N)CCCNC(=N)N)C(N)=O (H-Arg-[Phe(4-I)]-Arg-NH2) | – | 116 µM (≈ 69.9 µg/mL) | – | – | Activity (Streptococcus pyogenes [6]): inactive; Activity (Staphylococcus aureus [7]): inactive; Activity (Staphylococcus aureus [8]): inactive
CC(C)(C)c1ccc(-c2ccc(C[C@H](NC(=O)[C@@H](N)CCCNC(=N)N)C(=O)N[C@@H](CCCNC(=N)N)C(N)=O)cc2)cc1 | 9.7 µM (≈ 5.91 µg/mL) | 4.1 µM (≈ 2.5 µg/mL) | 11 µM (≈ 6.7 µg/mL) | – | MIC (Streptococcus pyogenes [4]): 25 µM (≈ 15.2 µg/mL)
N=C(N)NCCC[C@H](NC(=O)[C@H](Cc1ccc(/C=C/c2ccccc2)cc1)NC(=O)[C@@H](N)CCCNC(=N)N)C(N)=O | – | 14 µM (≈ 8.1 µg/mL) | – | inactive | Activity (Staphylococcus aureus [1]): inactive; Activity (Staphylococcus aureus [3]): inactive
N=C(N)NCCC[C@H](NC(=O)[C@H](Cc1ccc(-c2ccc3ccccc3c2)cc1)NC(=O)[C@@H](N)CCCNC(=N)N)C(N)=O | 25 µM (≈ 15.1 µg/mL) | 5 µM (≈ 3.01 µg/mL) | 25 µM (≈ 15.1 µg/mL) | inactive | –
N=C(N)NCCC[C@H](NC(=O)[C@H](Cc1ccc(-c2ccccc2-c2ccccc2)cc1)NC(=O)[C@@H](N)CCCNC(=N)N)C(N)=O | 24 µM (≈ 15.1 µg/mL) | 6.4 µM (≈ 4.02 µg/mL) | 28 µM (≈ 17.6 µg/mL) | inactive | –

Reference: ChEMBL document CHEMBL1139193, “Application of the Suzuki-Miyaura cross-coupling to increase antimicrobial potency generates promising novel antibacterials” (Bioorg Med Chem Lett, 2007)
